The values below come from PubChem BioAssay (NCI).

SMILES strings stand for the structures. Several values for one entry are separate records, joined by “and”; a condition that tells them apart may be missing. Identical values can stand only once.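 Cells were grown in 96-well plates and exposed to each compound for 48 hours at five concentrations; endpoints were interpolated linearly between bracketing concentrations, or set to the highest concentration if not reached. GI50: concentration for 50% inhibition of growth. At the TGI there is no net growth.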

Among the test systems are MDA-N; DLD-1 colon; DMS 273 small cell lung; HOP-18 NSCLC; KM20L2 colon; LXFL 529 NSCLC; RXF-631 renal; SNB-78 CNS; XF 498 CNS; P388/ADR leukemia; SN12K1 renal.
What all share (assay): NCI tumour cell line growth inhibition, 48 h

Regarding `NC(=O)NCCSC1CCCCC1O` (stereo not given), in the test with MDA-N, the TGI was more than 100 µM.

As to `CC1=CC2CC(C)C1(C)CCc1ccoc12` (stereo not given), the TGI in the test with DLD-1 colon, with DMS 273 small cell lung, in the test with HOP-18 NSCLC, with KM20L2 colon, in the test on LXFL 529 NSCLC and in the test with RXF-631 renal was more than 100 µM throughout. In addition, the TGI in the test with SNB-78 CNS and in the test with XF 498 CNS was more than 100 µM throughout.

Turning to `Cc1cc2c(cc1Br)C1(C)CCC(C)C1(C)O2` (stereo not given), the TGI is more than 100 µM in the test on DLD-1 colon; 50.4 µM with DMS 273 small cell lung; more than 100 µM in the test with HOP-18 NSCLC; more than 100 µM with KM20L2 colon; more than 100 µM in the test on LXFL 529 NSCLC; more than 100 µM in the test with SNB-78 CNS. The molecule also returned a TGI in the test on XF 498 CNS of 50.6 µM.

For the molecule `COc1cc2c(c(OC)c1OC)-c1ccc(SC)c(=O)cc1C(CC(=O)Oc1cccc(C#N)c1)C2` (stereo not given), the TGI with DLD-1 colon is more than 100 µM; in the test on DMS 273 small cell lung it was more than 100 µM; in the test with HOP-18 NSCLC, more than 100 µM; with KM20L2 colon it was 0.443 µM; in the test with LXFL 529 NSCLC it was more than 100 µM; in the test on SNB-78 CNS it was more than 100 µM. Further, the TGI in the test with XF 498 CNS came to 2.23 µM.

The molecule `COc1ccc(C(=O)CC(c2ccc(OC)c(OC)c2)c2c(O)c3ccccc3oc2=O)cc1OC` (stereo not given) returned a TGI in the test with MDA-N of more than 100 µM.

`CC(C)=CC1CC(C)C2(CCC3(C)CC4C(C(=O)CC4(C)O)/C(C=O)=C\CC32)O1` (stereo not given) displayed a TGI in the test with MDA-N of 0.258 µM.

Molecule `CN(C)S(=O)(=O)c1ccc(Nc2ccc(O)c3c2C(=O)c2c([N+](=O)[O-])ccc(O)c2C3=O)cc1` displayed a TGI in the test on MDA-N of more than 100 µM.

For the molecule `CC(=O)O[C@H]1CC[C@@]2(C)C(=CC[C@@H]3C2CC[C@]2(C)Nc4[nH]ncc4CC32)C1` (stereo not given in full), the TGI in the test on DLD-1 colon was 93.8 µM; in the test with DMS 273 small cell lung, 31.8 µM; in the test with KM20L2 colon it was 85.2 µM; in the test with LXFL 529 NSCLC, 36.4 µM; with RXF-631 renal, 34.7 µM; with SNB-78 CNS, more than 100 µM. In the test on XF 498 CNS, this molecule registered a TGI of 34.2 µM.

On to `CN1CCC(n2[nH]c(-c3ccccc3)c(Cc3ccccc3)c2=O)CC1`, for which, in the test with MDA-N, the TGI is more than 100 µM.

In the case of `CCC[CH2][Sn]1([CH2]CCC)[O]C(=O)CN=Cc2ccccc2[O]1`, the GI50 in the test on DLD-1 colon is 0.568 µM; in the test on DMS 273 small cell lung it was 0.864 µM; in the test with HOP-18 NSCLC, 0.337 µM; in the test on KM20L2 colon, 1.02 µM; with LXFL 529 NSCLC, 0.102 µM; in the test with RXF-631 renal, 0.182 µM. The figures for the GI50 in the test on SNB-78 CNS and in the test with XF 498 CNS were 0.232 µM and 0.137 µM, respectively. Besides, the TGI in the test on DLD-1 colon is more than 100 µM; in the test on DMS 273 small cell lung it was 2.12 µM; in the test with HOP-18 NSCLC, 1.36 µM; in the test with KM20L2 colon it was 2.26 µM; with LXFL 529 NSCLC, 0.236 µM; in the test on RXF-631 renal it was 0.324 µM. Moreover, the TGI was 1.34 µM in the test with SNB-78 CNS and 0.282 µM in the test on XF 498 CNS.

Turning to `CN(CCN(C)C(=O)CCOS(C)(=O)=O)C(=O)CCOS(C)(=O)=O`, the TGI in the test on DLD-1 colon, with DMS 273 small cell lung, in the test with HOP-18 NSCLC, with KM20L2 colon, in the test with LXFL 529 NSCLC and with SNB-78 CNS was more than 100 µM throughout. The TGI in the test on XF 498 CNS was more than 100 µM.

Turning to `c1cncc(CNc2ncn[nH]2)c1`, the TGI with MDA-N is more than 100 µM.

Regarding `Cc1c(O)c(=O)ccn1CCO`, the TGI with DLD-1 colon, with HOP-18 NSCLC, in the test with KM20L2 colon, in the test on LXFL 529 NSCLC, in the test on SNB-78 CNS and in the test on XF 498 CNS was more than 100 µM throughout.

Turning to `O=[N+]([O-])c1ccc(N=Nc2c(O)[nH]c3ccccc23)cc1`, the TGI in the test with MDA-N was more than 100 µM.

Turning to `COc1ccc(C(O)/C(=C/n2ccnc2)c2ccccc2)cc1OC` (stereo not given), the TGI with DLD-1 colon, with DMS 273 small cell lung, in the test on HOP-18 NSCLC, in the test on KM20L2 colon, in the test with RXF-631 renal and in the test with XF 498 CNS was more than 100 µM each time.

In the case of `COC(=O)[C@]12CC=C3O[C@@H]4OC5(CCCCC5)O[C@@H]4[C@H]3C1C(=O)C=CC2=O` (stereo not given in full), the TGI was 29.9 µM in the test on DLD-1 colon; 34.3 µM with DMS 273 small cell lung; 32.6 µM with HOP-18 NSCLC; 37.5 µM in the test on KM20L2 colon; 23.8 µM with LXFL 529 NSCLC; 33.6 µM in the test on MDA-N. Besides, the TGI in the test on P388/ADR leukemia is 10.5 µM; in the test with SN12K1 renal, 31.4 µM; with SNB-78 CNS, 37.2 µM; in the test with XF 498 CNS, 20 µM.

As for `Clc1cc(Cl)cc(Nc2nc3ccccc3nc2-c2cccs2)c1`, the TGI with DLD-1 colon was more than 100 µM; with DMS 273 small cell lung, 27.2 µM; with HOP-18 NSCLC, 88.8 µM; with LXFL 529 NSCLC it was more than 100 µM; in the test on RXF-631 renal it was 31.8 µM; in the test on SNB-78 CNS, more than 100 µM. The TGI in the test with XF 498 CNS is 73.2 µM.

With `CO/C(=N\N=C\c1cccc(C(F)(F)F)c1)c1ccncc1`, in the test with MDA-N, the GI50 is 3.25 µM; the TGI is 5.17 µM and 32.5 µM.

For `C=CCN(CC=C)CC(C(C)=O)C(c1ccccc1)c1c(O)c2ccccc2oc1=O` (stereo not given), the TGI in the test with DLD-1 colon, in the test with DMS 273 small cell lung, in the test with KM20L2 colon, in the test with LXFL 529 NSCLC, in the test with SNB-78 CNS and in the test with XF 498 CNS was more than 100 µM each time.

Consider `C[Si]12OCCCN(CCO1)CCO2`, for which the TGI in the test on DLD-1 colon, in the test on DMS 273 small cell lung, with LXFL 529 NSCLC and in the test on SNB-78 CNS was more than 100 µM each time.
